Patent US9302999B2, “Substituted triazoles as herbicides” (E. I. DU PONT DE NEMOURS AND COMPANY, priority 2012, dated 2016)

Assays:
Type in all cases: in vivo
Conditions in all cases: scale 0 to 100
[1] = test system: panicum, fall (fall panicum, Panicum dichotomiflorum); experiment: Test E pre-/postemergence: panicum, fall
From the text: (§1) Seeds of plant species selected from corn (Zea mays), soybean (Glycine max), velvetleaf (Abutilon theophrasti), lambsquarters (Chenopodium album), poinsettia, wild (wild poinsettia, Euphorbia heterophylla), pigweed, palmer (palmer pigweed, Amaranthus palmeri), waterhemp (common waterhemp, Amaranthus rudis), smartweed (ladysthumb smartweed, Polygonum persicaria), surinam grass (Brachiaria decumbens), crabgrass, large (large crabgrass, Digitaria sanguinalis), crabgrass, Brazil (Brazilian crabgrass, Digitaria horizontalis), panicum, fall (fall panicum, Panicum dichotomiflorum), foxtail, giant (giant foxtail, Setaria faberii), foxtail, green (green foxtail, Setaria viridis), goosegrass (Eleusine indica), johnsongrass (Sorghum halepense), ragweed (common ragweed, Ambrosia elation), barnyardgrass (Echinochloa crus-galli), sandbur (southern sandbur, Cenchrus echinatus), arrowleaf sida (Sida rhombifolia), ryegrass, Italian (Italian ryegrass, Lolium multiflorum), dayflower, (VA) (Virginia dayflower, Commelina virginica), field bindweed (Convolvulus arvensis), cocklebur (common cocklebur, Xanthium strumarium), morningglory (Ipomoea coccinea), nightshade (eastern black nightshade, Solanum ptycanthum), kochia (Kochia scoparia), nutsedge, yellow (yellow nutsedge, Cyperus esculentus) and beggarticks (hairy beggarticks, Bidens pilosa) were planted into a silt loam soil and treated preemergence with test chemicals formulated in a non-phytotoxic solvent mixture which included a surfactant. At the same time, plants selected from these crop and weed species were planted in pots containing a growing medium comprising spaghnum peat moss, vermiculite, wetting agent and starter nutrients and treated with postemergence applications of some of the test chemicals formulated in the same manner. Plants ranged in height from 2 to 18 cm for postemergence treatments (1- to 4-leaf stage).
(§2) Treated plants and controls were maintained in a greenhouse for 14 to 21 days, after which time all species were compared to controls and visually evaluated. Plant response ratings, summarized in Table E, are based on a scale of 0 to 100 where 0 is no effect and 100 is complete control. A dash (-) response means no test result.

[2] = test system: poinsettia, wild (wild poinsettia, Euphorbia heterophylla); experiment: Test E pre-/postemergence: poinsettia, wild
From the text: as §1, §2

[3] = test system: crabgrass, Brazil (Brazilian crabgrass, Digitaria horizontalis); experiment: Test E pre-/postemergence: crabgrass, Brazil
From the text: as §1, §2

[4] = test system: sandbur (southern sandbur, Cenchrus echinatus); experiment: Test E pre-/postemergence: sandbur
From the text: as §1, §2

**Q.** Which “Plant response rating: Panicum, Fall” value ([1]; Preemergence, 8 g ai/ha) does the source give for Cc1nn(-c2ccc(F)cc2)nc1Cc1ccnc(C(F)(F)F)c1 [Compound 16, 4-[[2-(4-fluorophenyl)-5-methyl-2H-1,2,3-triazol-4-yl]methyl]-2-(trifluoromethyl)pyridine] here?
**A.** 0

**Q.** What about the “Plant response rating: Panicum, Fall” value ([1]; Preemergence, 16 g ai/ha) of the same compound?
**A.** 70

**Q.** And the “Plant response rating: Panicum, Fall” value ([1]; Preemergence, 31 g ai/ha)?
**A.** 100

**Q.** What about the “Plant response rating: Panicum, Fall” value ([1]; Preemergence, 62 g ai/ha) of the same compound?
**A.** 100

**Q.** What about the “Plant response rating: Panicum, Fall” value ([1]; Preemergence, 125 g ai/ha) of the same compound?
**A.** 100

**Q.** And the “Plant response rating: Poinsettia, Wild” value ([2]; Preemergence, 8 g ai/ha)?
**A.** 0

**Q.** What about the “Plant response rating: Poinsettia, Wild” value ([2]; Preemergence, 16 g ai/ha) of the same compound?
**A.** 0

**Q.** What about the “Plant response rating: Poinsettia, Wild” value ([2]; Preemergence, 31 g ai/ha) of the same compound?
**A.** 20

**Q.** And the “Plant response rating: Poinsettia, Wild” value ([2]; Preemergence, 62 g ai/ha)?
**A.** 40

**Q.** And the “Plant response rating: Poinsettia, Wild” value ([2]; Preemergence, 125 g ai/ha)?
**A.** 98

**Q.** And the “Plant response rating: Crabgrass, Brazil” value ([3]; Preemergence, 8 g ai/ha)?
**A.** 30

**Q.** And the “Plant response rating: Crabgrass, Brazil” value ([3]; Preemergence, 16 g ai/ha)?
**A.** 70

**Q.** And the “Plant response rating: Crabgrass, Brazil” value ([3]; Preemergence, 31 g ai/ha)?
**A.** 95

**Q.** And the “Plant response rating: Crabgrass, Brazil” value ([3]; Preemergence, 62 g ai/ha)?
**A.** 100

**Q.** What about the “Plant response rating: Crabgrass, Brazil” value ([3]; Preemergence, 125 g ai/ha) of the same compound?
**A.** 100

**Q.** What about the “Plant response rating: Sandbur” value ([4]; Preemergence, 8 g ai/ha) of the same compound?
**A.** 0

**Q.** What about the “Plant response rating: Sandbur” value ([4]; Preemergence, 16 g ai/ha) of the same compound?
**A.** 0

**Q.** What about the “Plant response rating: Sandbur” value ([4]; Preemergence, 31 g ai/ha) of the same compound?
**A.** 10

**Q.** And the “Plant response rating: Sandbur” value ([4]; Preemergence, 62 g ai/ha)?
**A.** 50

**Q.** And the “Plant response rating: Sandbur” value ([4]; Preemergence, 125 g ai/ha)?
**A.** 60

**Q.** With Cc1nn(-c2ccc(C(F)(F)F)cc2)nc1Cc1ccnc(C(F)(F)F)c1 [Compound 47, 4-[[5-methyl-2-[4-(trifluoromethyl)phenyl]-2H-1,2,3-triazol-4-yl]methyl]-2-(trifluoromethyl)pyridine] as the compound, how does the “Plant response rating: Panicum, Fall” value ([1]; Postemergence, 250 g ai/ha) read?
**A.** 40

**Q.** And the “Plant response rating: Panicum, Fall” value ([1]; Postemergence, 16 g ai/ha)?
**A.** 10

**Q.** What about the “Plant response rating: Panicum, Fall” value ([1]; Postemergence, 31 g ai/ha) of the same compound?
**A.** 20

**Q.** And the “Plant response rating: Panicum, Fall” value ([1]; Postemergence, 62 g ai/ha)?
**A.** 30

**Q.** And the “Plant response rating: Panicum, Fall” value ([1]; Postemergence, 125 g ai/ha)?
**A.** 30

**Q.** And the “Plant response rating: Panicum, Fall” value ([1]; Preemergence, 16 g ai/ha)?
**A.** 100

**Q.** And the “Plant response rating: Panicum, Fall” value ([1]; Preemergence, 31 g ai/ha)?
**A.** 100

**Q.** And the “Plant response rating: Panicum, Fall” value ([1]; Preemergence, 62 g ai/ha)?
**A.** 100

**Q.** What about the “Plant response rating: Panicum, Fall” value ([1]; Preemergence, 125 g ai/ha) of the same compound?
**A.** 100

**Q.** And the “Plant response rating: Panicum, Fall” value ([1]; Preemergence, 250 g ai/ha)?
**A.** 100

**Q.** And the “Plant response rating: Poinsettia, Wild” value ([2]; Postemergence, 250 g ai/ha)?
**A.** 100

**Q.** And the “Plant response rating: Poinsettia, Wild” value ([2]; Postemergence, 16 g ai/ha)?
**A.** 75

**Q.** What about the “Plant response rating: Poinsettia, Wild” value ([2]; Postemergence, 31 g ai/ha) of the same compound?
**A.** 75

**Q.** What about the “Plant response rating: Poinsettia, Wild” value ([2]; Postemergence, 62 g ai/ha) of the same compound?
**A.** 90

**Q.** And the “Plant response rating: Poinsettia, Wild” value ([2]; Postemergence, 125 g ai/ha)?
**A.** 98

**Q.** And the “Plant response rating: Poinsettia, Wild” value ([2]; Preemergence, 16 g ai/ha)?
**A.** 0

**Q.** What about the “Plant response rating: Poinsettia, Wild” value ([2]; Preemergence, 31 g ai/ha) of the same compound?
**A.** 25

**Q.** What about the “Plant response rating: Poinsettia, Wild” value ([2]; Preemergence, 62 g ai/ha) of the same compound?
**A.** 40

**Q.** And the “Plant response rating: Poinsettia, Wild” value ([2]; Preemergence, 125 g ai/ha)?
**A.** 65

**Q.** What about the “Plant response rating: Poinsettia, Wild” value ([2]; Preemergence, 250 g ai/ha) of the same compound?
**A.** 100

**Q.** And the “Plant response rating: Crabgrass, Brazil” value ([3]; Postemergence, 250 g ai/ha)?
**A.** 50

**Q.** And the “Plant response rating: Crabgrass, Brazil” value ([3]; Postemergence, 16 g ai/ha)?
**A.** 20

**Q.** What about the “Plant response rating: Crabgrass, Brazil” value ([3]; Postemergence, 31 g ai/ha) of the same compound?
**A.** 30

**Q.** What about the “Plant response rating: Crabgrass, Brazil” value ([3]; Postemergence, 62 g ai/ha) of the same compound?
**A.** 40

**Q.** What about the “Plant response rating: Crabgrass, Brazil” value ([3]; Postemergence, 125 g ai/ha) of the same compound?
**A.** 40

**Q.** And the “Plant response rating: Crabgrass, Brazil” value ([3]; Preemergence, 16 g ai/ha)?
**A.** 35

**Q.** What about the “Plant response rating: Crabgrass, Brazil” value ([3]; Preemergence, 31 g ai/ha) of the same compound?
**A.** 80

**Q.** And the “Plant response rating: Crabgrass, Brazil” value ([3]; Preemergence, 62 g ai/ha)?
**A.** 100

**Q.** And the “Plant response rating: Crabgrass, Brazil” value ([3]; Preemergence, 125 g ai/ha)?
**A.** 100

**Q.** What about the “Plant response rating: Crabgrass, Brazil” value ([3]; Preemergence, 250 g ai/ha) of the same compound?
**A.** 100

**Q.** And the “Plant response rating: Sandbur” value ([4]; Postemergence, 250 g ai/ha)?
**A.** 50

**Q.** What about the “Plant response rating: Sandbur” value ([4]; Postemergence, 16 g ai/ha) of the same compound?
**A.** 20

**Q.** What about the “Plant response rating: Sandbur” value ([4]; Postemergence, 31 g ai/ha) of the same compound?
**A.** 25

**Q.** And the “Plant response rating: Sandbur” value ([4]; Postemergence, 62 g ai/ha)?
**A.** 25

**Q.** What about the “Plant response rating: Sandbur” value ([4]; Postemergence, 125 g ai/ha) of the same compound?
**A.** 30

**Q.** And the “Plant response rating: Sandbur” value ([4]; Preemergence, 16 g ai/ha)?
**A.** 0

**Q.** And the “Plant response rating: Sandbur” value ([4]; Preemergence, 31 g ai/ha)?
**A.** 20

**Q.** And the “Plant response rating: Sandbur” value ([4]; Preemergence, 62 g ai/ha)?
**A.** 90

**Q.** What about the “Plant response rating: Sandbur” value ([4]; Preemergence, 250 g ai/ha) of the same compound?
**A.** 100
